Experimental data published in PMC3161871, “Heteroarylketones inhibit astroglial interleukin-6 expression via a STAT3/NF-κB signaling pathway” (Journal of Neuroinflammation, 2011).

Legend:
[1] = tested on: IL-6 release from U343 cells; test: Dose-dependent stimulation of IL-6 release by OSM in U343 cells (ELISA); assay type: cell-based, human; settings: U343 cells treated 24 h with OSM, ELISA of conditioned medium
Description: (§1) The human glioma cell line U343 [34] was maintained in DMEM containing 10% fetal bovine serum and 60 μg/ml gentamycin (Invitrogen, Darmstadt, Germany) at 37°C in a 10% CO2 atmosphere.
Measurements of IL-6 in conditioned medium and murine plasma samples were done by means of human- or murine-specific IL-6 Cytoset kits (Invitrogen, Darmstadt, Germany) according to manufacturer's protocols.
The dose- and time-dependent stimulation of IL-6 expression by OSM in U343 cells is characterized in figure 1. To analyze dose dependence of IL-6 release, U343 cells were treated for 24 hours with various concentrations of OSM followed by measurement of IL-6 protein concentrations in the conditioned medium by a specific ELISA. […] Therefore, all further investigations were performed with 100 ng/ml OSM. The highest dose of 200 ng/ml OSM led to 30-fold increase of IL-6 accumulation in the conditioned media in comparison to vehicle-treated cells.
Figure 1 OSM induces dose- and time-dependent IL-6 expression in human U343 glioma cells. OSM treatment leads to dose-dependent IL-6 release (A). U343 cells were stimulated with different concentrations of OSM as indicated. After 24 hours the conditioned medium was analyzed by IL-6-specific ELISA. […] IL-6 mRNA expression was analyzed by qRT-PCR (dotted line, black triangles) and IL-6 protein release by ELISA (solid line, black squares). […]

[2] = tested on: IL-6 mRNA expression in U343 cells; test: OSM-induced IL-6 mRNA expression in U343 cells (qRT-PCR time course); assay type: cell-based, human; settings: 100 ng/ml OSM
Description: as §1
Total RNA of cultured cells and homogenized mouse brain tissue samples was isolated using RNA isolation kit "NucleoSpin RNA II" from Macherey and Nagel. RNA quantity was measured by spectrophotometrical quantification (NanoDrop 2000, Peqlab, Erlangen, Germany). Total RNA (0.5 μg) was transcribed to cDNA using Superscript III and oligo-dT primer (Invitrogen, Darmstadt, Germany). Quantitative real-time PCR was performed with QuantiFast SYBR Green PCR Master mix (Qiagen, Hilden, Germany) using Rotorgene 3000 system (Corbett, Sydney, Australia). Gene expression was normalized to the expression of three reference genes glyceraldehyde 3-phosphate dehydrogenase (GAPDH), glucose-6-phosphate dehydrogenase (G6PDH) and hypoxanthine-guanine phosphoribosyltransferase (HPRT). Primers for PREP (5'-[…]-3'; 5'- […]-3') and IL-6 (5'-AAAGGACGTCACATTGCA-3'; 5'-[…]-3') were designed using the Primer3 Software (http://frodo.wi.mit.edu/). Data were analyzed by Rotorgene 3000 Software version 6.0 by comparative quantitation. The appropriate size of PCR products was confirmed by gel-electrophoresis stained with ethidium bromide.
To analyze the time-course of OSM-induced IL-6 expression, U343 cells were incubated with OSM for different periods of time as indicated in figure 1B. Amounts of IL-6 mRNA and protein were subsequently quantified by qRT-PCR and by ELISA, respectively. […] Significant induction of IL-6 protein was detected in the conditioned medium as early as 3 h post stimulation and reaching a maximum at 24 h.
To reveal whether bioactivity of HAK compounds is based on suppression of IL-6 protein biosynthesis or on interference with IL-6 mRNA expression OSM-treated U343 cells were incubated with 20 μM of compound HAK-2 for different periods of time. […] Therefore, it is very likely that the relevant molecular target of HAK compounds is involved in the OSM-induced signal transduction process not earlier than 6 h after onset of the stimulation.
Figure 4 Time course of OSM-induced IL-6 mRNA expression in U343 cells treated with compound HAK-2. […] U343 cells were stimulated with 100 ng/ml OSM and treated with 0.1% DMSO as solvent control (solid line, black triangle) or 20 μM HAK-2 (dashed line, white triangle). Samples were harvested at time points indicated to extract total RNA. IL-6 mRNA expression was analyzed by qRT-PCR. All data points are presented as mean ± SD, and were obtained from experiments carried out in quadruplicate. Statistical analysis were performed between control and HAK-2 samples from same time point. ns, not significant; ***p < 0.001.

Oncostatin M [OSM, reference compound]
EC50 of IL-6 release [1]: 0.0705 ± 0.02268 µg/mL
IL-6 mRNA induction, first peak ([2]; 1 h post stimulation): 6.5 fold
IL-6 mRNA induction, second peak ([2]; 16 h post stimulation): 5.5 fold
